Source: patent US9403802B2, “Heterocyclic compound and use therefor” (Takeda Pharmaceutical Company Limited, priority 2012, dated 2016)
Read-outs that look alike come from different tables or passages of the source.

Target: T1, human M1 receptor (hCHRM1) (Homo sapiens, UniProt P11229)
T1 construct: expressed in transfected cells; host or cells: CHO-K1
T1 sequence (P11229 1-460): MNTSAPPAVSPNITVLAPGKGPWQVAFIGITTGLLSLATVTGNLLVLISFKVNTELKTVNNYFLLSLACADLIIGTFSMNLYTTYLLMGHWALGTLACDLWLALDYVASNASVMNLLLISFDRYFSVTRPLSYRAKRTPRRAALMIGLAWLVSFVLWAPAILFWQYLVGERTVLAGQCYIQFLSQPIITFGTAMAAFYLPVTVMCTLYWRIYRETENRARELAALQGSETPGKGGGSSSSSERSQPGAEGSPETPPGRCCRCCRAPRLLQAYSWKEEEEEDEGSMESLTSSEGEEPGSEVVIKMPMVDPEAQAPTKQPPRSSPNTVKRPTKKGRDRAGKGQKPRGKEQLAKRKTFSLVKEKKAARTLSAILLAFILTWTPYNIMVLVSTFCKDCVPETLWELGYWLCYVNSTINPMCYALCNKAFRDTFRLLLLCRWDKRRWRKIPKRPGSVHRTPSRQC
Experiment: Measurement of cholinergic muscarinic M1 receptor positive allosteric modulator (M1PAM) activity, calcium fluorescence (FLIPRtetra)
Type: cell-based
Details: for activity (%) at 10 μM: test compound 10 μM with acetylcholine at EC20 (final 0.6 nM), 100% = acetylcholine 1 μM, 0% = DMSO
Procedure: The activity of a test compound in the presence of acetylcholine at EC20 concentration (final concentration 0.6 nM), which affords an action corresponding to 20% of the maximum activity, was measured as M1PAM activity. The method is as follows. CHO-K1 cells forcibly expressing a human M1 receptor (hCHRM1) were plated on a 384-well black clear bottom plate (BD Falcon) at 5,000 cells/well, and cultured in an incubator at 37° C., 5% CO2 for 1 day. The medium in the cell plate was removed, and assay buffer A (Recording medium (DOJINDO LABORATORIES), 0.1% bovine serum albumin (BSA) (Wako Pure Chemical Industries, Ltd.), 2.5 μg/mL Fluo-4 AM (DOJINDO LABORATORIES), 0.08% Pluronic F127 (DOJINDO LABORATORIES), 1.25 mM probenecid (DOJINDO LABORATORIES)) containing a calcium indicator was added at 30 μL/well. The cells were left standing in the incubator at 37° C., 5% CO2 for 30 min, and further left standing at room temperature for 30 min. A test compound prepared by diluting with assay buffer B (HBSS (Invitrogen), 20 mM HEPES (Invitrogen), 0.1% BSA) containing 2.4 nM acetylcholine was added at 10 μL/well, and the fluorescence was measured by FLIPRtetra (Molecular Devices) for 1 min every 1 second. With the definition that the amount of change in the fluorescence on addition of acetylcholine (final concentration 1 μM) is 100% and that on addition of DMSO instead of a test compound is 0%, the activity (%) of the test compound and the inflection point in the concentration-dependent curve of the test compound were calculated as IP values.

[1] = inflection point of the concentration-dependent curve, with acetylcholine at EC20 (final 0.6 nM), CHO-K1 cells expressing hCHRM1, read-out: IP value

| Compound | EC50 | activity (%) at 10 μM (CHO-K1 cells expressing hCHRM1) | EC50 [1] |
| --- | --- | --- | --- |
| O=C(N[C@H]1CCCC[C@@H]1O)c1cn(Cc2ccc(-n3cccn3)cc2)c2c(F)ccc(F)c2c1=O (racemic) [Example 3, 5,8-difluoro-N-[(1,2-trans)-2-hydroxycyclohexyl]-4-oxo-1-[4-(1H-pyrazol-1-yl)benzyl]-1,4-dihydroquinoline-3-carboxamide] | 8.7 nM | 93% |  |
| COc1ccc(Cn2cc(C(=O)NC3CCCCC3CO)c(=O)c3c(F)ccc(F)c32)cc1 (racemic) [Example 65, 5,8-difluoro-N-[(1,2-trans)-2-(hydroxymethyl)-cyclohexyl]-1-(4-methoxybenzyl)-4-oxo-1,4-dihydroquinoline-3-carboxamide] |  | 96% | 420 nM |
| CC(F)(F)c1ccc(Cn2cc(C(=O)N[C@H]3CCCC[C@@H]3O)c(=O)c3ccccc32)cc1 (racemic) [Example 82, 1-[4-(1,1-difluoroethyl)-benzyl]-N-[(1,2-trans)-2-hydroxycyclohexyl]-4-oxo-1,4-dihydroquinoline-3-carboxamide] |  | 83% | 170 nM |
| COc1ccc(Cn2cc(C(=O)NCCO)c(=O)c3c(F)ccc(F)c32)cc1 [Example 17, 5,8-difluoro-N-(2-hydroxyethyl)-1-(4-methoxybenzyl)-4-oxo-1,4-dihydroquinoline-3-carboxamide] |  | 69% | 5800 nM |
| COc1ccc(Cn2cc(C(=O)NC3CCCCC3)c(=O)c3c(F)ccc(F)c32)cc1 [Example 14, N-cyclohexyl-5,8-difluoro-1-(4-methoxybenzyl)-4-oxo-1,4-dihydroquinoline-3-carboxamide] |  | 96% | 920 nM |
| O=C(N[C@H]1CCCC[C@@H]1O)c1cn(Cc2ccc(-c3ccn[nH]3)cc2)c2ccccc2c1=O (racemic) [Example 85, N-[(1,2-trans)-2-hydroxycyclohexyl]-4-oxo-1-[4-(1H-pyrazol-5-yl)benzyl]-1,4-dihydroquinoline-3-carboxamide] | 4.7 nM | 90% |  |
| NC(=O)c1ccc(Cn2cc(C(=O)N[C@H]3CCCC[C@@H]3O)c(=O)c3ccccc32)cc1 [Example 78, 1-(4-carbamoylbenzyl)-N-[(1S,2S)-2-hydroxycyclohexyl]-4-oxo-1,4-dihydroquinoline-3-carboxamide] | 2.2 nM | 86% |  |
| COc1ccc(Cn2cc(C(=O)NC3CC3)c(=O)c3c(F)ccc(F)c32)cc1 [Example 8, N-cyclopropyl-5,8-difluoro-1-(4-methoxybenzyl)-4-oxo-1,4-dihydroquinoline-3-carboxamide] |  | 100% | 2000 nM |
| COc1ccc(Cn2nc(C(=O)N[C@H]3CCCC[C@@H]3O)c(=O)c3ccccc32)cc1 [Example 51, N-[(1S,2S)-2-hydroxycyclohexyl]-1-(4-methoxybenzyl)-4-oxo-1,4-dihydrocinnoline-3-carboxamide] |  | 97% | 68 nM |
| COCCNC(=O)c1cn(Cc2ccc(OC)cc2)c2c(F)ccc(F)c2c1=O [Example 20, 5,8-difluoro-1-(4-methoxybenzyl)-N-(2-methoxyethyl)-4-oxo-1,4-dihydroquinoline-3-carboxamide] |  | 72% | 5000 nM |
| COc1ccc(Cn2nc(C(=O)N[C@H]3CCOC[C@@H]3O)c(=O)c3ccccc32)cc1 (racemic) [Example 71, 1,5-anhydro-2,3-dideoxy-3-({[1-(4-methoxybenzyl)-4-oxo-1,4-dihydrocinnolin-3-yl]carbonyl}amino)-DL-threo-pentitol] |  | 97% | 16 nM |
| NC(=O)c1ccc(Cn2nc(C(N)=O)c(=O)c3ccccc32)cc1 [Example 73, 1-(4-carbamoylbenzyl)-4-oxo-1,4-dihydrocinnoline-3-carboxamide] |  | 96% | 63 nM |
| NC(=O)c1ccc(Cn2cc(C(=O)N[C@H]3CCCC[C@@H]3O)c(=O)c3ccccc32)cc1 (racemic) [Example 74, 1-(4-carbamoylbenzyl)-N-[(1,2-trans)-2-hydroxycyclohexyl]-4-oxo-1,4-dihydroquinoline-3-carboxamide] | 5.4 nM | 97% |  |
| COc1ccc(Cn2cc(C(=O)N[C@H]3CCCC[C@@H]3O)c(=O)c3c(F)ccc(F)c32)cc1 [Example 27, 5,8-difluoro-N-[(1S,2S)-2-hydroxycyclohexyl]-1-(4-methoxybenzyl)-4-oxo-1,4-dihydroquinoline-3-carboxamide] | 38 nM | 102% |  |
| COc1ccc(Cn2cc(C(N)=O)c(=O)c3c(F)ccc(F)c32)cc1 [Example 1, 5,8-difluoro-1-(4-methoxybenzyl)-4-oxo-1,4-dihydroquinoline-3-carboxamide] |  | 90% | 630 nM |
| COc1ccc(Cn2cc(C(=O)N[C@H]3CCC[C@@H]3O)c(=O)c3c(F)ccc(F)c32)cc1 (racemic) [Example 25, 5,8-difluoro-N-[(1,2-trans)-2-hydroxycyclopentyl]-1-(4-methoxybenzyl)-4-oxo-1,4-dihydroquinoline-3-carboxamide] |  | 98% | 190 nM |
| O=C(N[C@H]1CCCC[C@@H]1O)c1nn(Cc2ccc(-n3cccn3)cc2)c2ccccc2c1=O (racemic) [Example 4, N-[(1,2-trans)-2-hydroxycyclohexyl]-4-oxo-1-[4-(1H-pyrazol-1-yl)benzyl]-1,4-dihydrocinnoline-3-carboxamide] |  | 107% | 27 nM |
| COc1ccc(Cn2cc(C(=O)NN)c(=O)c3ccccc32)cc1 [Example 13, 1-(4-methoxybenzyl)-4-oxo-1,4-dihydroquinoline-3-carbohydrazide] |  | 77% | 6100 nM |
| CNC(=O)c1cn(Cc2ccc(OC)cc2)c2c(F)ccc(F)c2c1=O [Example 7, 5,8-difluoro-1-(4-methoxybenzyl)-N-methyl-4-oxo-1,4-dihydroquinoline-3-carboxamide] |  | 71% | 3500 nM |
| COc1ccc(Cn2cc(C(=O)N[C@H]3CC(F)(F)CC[C@@H]3O)c(=O)c3c(F)ccc(F)c32)cc1 (racemic) [Example 84, N-[(1,2-trans)-5,5-difluoro-2-hydroxycyclohexyl]-5,8-difluoro-1-(4-methoxybenzyl)-4-oxo-1,4-dihydroquinoline-3-carboxamide] | 91 nM | 85% |  |
| COc1ccc(Cn2cc(C(=O)NN3CCCCC3)c(=O)c3c(F)ccc(F)c32)cc1 [Example 21, 5,8-difluoro-1-(4-methoxybenzyl)-4-oxo-N-piperidin-1-yl-1,4-dihydroquinoline-3-carboxamide] |  | 97% | 280 nM |
| NC(=O)c1ccc(Cn2cc(C(=O)N[C@H]3CCCC[C@@H]3F)c(=O)c3ccccc32)cc1 (racemic) [Example 88, 1-(4-carbamoylbenzyl)-N-[(1,2-trans)-2-fluorocyclohexyl]-4-oxo-1,4-dihydroquinoline-3-carboxamide] | 12 nM | 101% |  |
| Cc1cc(-c2ccc(Cn3cc(C(=O)N[C@H]4CCC[C@@H]4O)c(=O)c4ccccc43)cc2)ccn1 (racemic) [Example 93, N-[(1,2-trans)-2-hydroxycyclopentyl]-1-[4-(2-methylpyridin-4-yl)benzyl]-4-oxo-1,4-dihydroquinoline-3-carboxamide] | 12 nM | 95% |  |
